Read-outs that look alike come from different tables or passages of the source. Where a SMILES comes first, the peptide text is derived from it. Where no end group is shown, it is not given here. [ ]: non-standard residue; d: D form. The star is where a group is joined. Hexanoyl = CCCCCC(=O)*; Aib = CC(C)(N)C(=O)O

Assay [1] addresses T1, human VPAC2 (Homo sapiens, UniProt P41587).
T1 construct: expressed in transfected cells
T1 sequence (P41587 24-438): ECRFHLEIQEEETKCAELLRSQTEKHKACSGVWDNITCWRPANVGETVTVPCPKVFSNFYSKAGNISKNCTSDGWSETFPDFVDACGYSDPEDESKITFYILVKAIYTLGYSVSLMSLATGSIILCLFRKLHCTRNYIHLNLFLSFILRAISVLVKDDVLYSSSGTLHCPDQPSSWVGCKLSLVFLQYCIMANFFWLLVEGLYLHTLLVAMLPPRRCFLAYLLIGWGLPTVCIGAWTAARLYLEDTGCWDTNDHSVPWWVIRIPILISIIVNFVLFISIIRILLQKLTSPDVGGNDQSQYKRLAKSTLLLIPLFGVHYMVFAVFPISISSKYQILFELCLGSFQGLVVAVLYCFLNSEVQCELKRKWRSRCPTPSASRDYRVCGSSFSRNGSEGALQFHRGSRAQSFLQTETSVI
As to the kind of experiment: Alpha screen cAMP in vitro potency, human VPAC2 receptor. The assay is classed as cell-based. The procedure: Alpha screen: Cells are washed in the culture flask once with PBS. Then, the cells are rinsed with enzyme free dissociation buffer. The dissociated cells are removed. The cells are then spun down and washed in stimulation buffer. For each data point, 50,000 cells suspended in stimulation buffer are used. To this buffer, Alpha screen acceptor beads are added along with the stimuli. This mixture is incubated for 60 minutes. Lysis buffer and Alpha screen donor beads are added and are incubated for 60 to 120 minutes. The Alpha screen signal (indicative of intracellular cAMP levels) is read in a suitable instrument (e.g. AlphaQuest from Perkin-Elmer). Steps including Alpha screen donor and acceptor beads are performed in reduced light.

In assay [2] the target is T1, human VPAC2. Put plainly: Filter binding assay, membranes of stable VPAC2 cell line, 125I-labeled VIP tracer (Table 2). The procedure: (§1) For this assay, the solutions and equipment include:
(§2) Presoak solution: 0.5% Polyethyleneamine in Aqua dest.
(§3) Buffer for flushing filter plates: 25 mM HEPES pH 7.4
(§4) Blocking buffer: 25 mM HEPES pH 7.4; 0.2% protease free BSA
(§5) Assay buffer: 25 mM HEPES pH 7.4; 0.5% protease free BSA
(§6) Dilution and assay plate: PS-Microplate, U form
(§7) Filtration Plate Multiscreen FB Opaque Plate; […] Type B Glasfiber filter
(§8) In order to prepare the filter plates, aspirate the presoak solution by vacuum filtration. Flush the plates twice with 200 μL flush buffer. Add 200 μL blocking buffer to the filter plate. The filter plate is then incubated […] for 1 hour at room temperature.
(§9) Fill the assay plate with 25 μL assay buffer, 25 μL membranes (2.5 μg) suspended in assay buffer, 25 μL compound (agonist) in assay buffer, and 25 μL tracer (about 40000 cpm) in assay buffer. Incubate the filled plate for 1 hour with shaking.
(§10) Conduct the transfer from assay plate to filter plate. Aspirate the blocking buffer by vacuum filtration and wash two times with flush buffer. Transfer 90 μL from the assay plate to the filter plate. Aspirate the 90 μL transferred from assay plate and wash three times with 200 μL flush buffer. Remove the plastic support. Dry for 1 hour at 60° C. Add 30 μL Microscint. Perform the count.

Assay [3] concerns the target T2, human VPAC1 (Homo sapiens, UniProt P32241).
T2 sequence (P32241 31-457): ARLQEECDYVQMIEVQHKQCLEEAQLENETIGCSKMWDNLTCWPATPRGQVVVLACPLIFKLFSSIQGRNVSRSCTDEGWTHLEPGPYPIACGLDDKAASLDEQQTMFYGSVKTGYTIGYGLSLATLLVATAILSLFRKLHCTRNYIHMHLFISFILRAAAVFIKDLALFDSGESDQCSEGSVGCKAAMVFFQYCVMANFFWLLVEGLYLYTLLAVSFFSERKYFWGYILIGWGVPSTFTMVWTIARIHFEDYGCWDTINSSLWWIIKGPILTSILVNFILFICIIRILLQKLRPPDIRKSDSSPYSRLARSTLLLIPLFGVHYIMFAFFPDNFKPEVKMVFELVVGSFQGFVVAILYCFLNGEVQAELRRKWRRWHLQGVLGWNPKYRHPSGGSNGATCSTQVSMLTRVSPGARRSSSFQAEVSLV
Put plainly: Filter binding assay, membranes of cells transiently transfected with human VPAC1, 125I-labeled VIP tracer (Table 2). Also on record: expressed in transfected cells. The procedure:
as §1, §2, §3, §4, §5, §6, §7, §8, §9, §10

Assay [4] concerns the target T3, human PAC1 (Homo sapiens, UniProt P41586).
T3 sequence (P41586 21-468): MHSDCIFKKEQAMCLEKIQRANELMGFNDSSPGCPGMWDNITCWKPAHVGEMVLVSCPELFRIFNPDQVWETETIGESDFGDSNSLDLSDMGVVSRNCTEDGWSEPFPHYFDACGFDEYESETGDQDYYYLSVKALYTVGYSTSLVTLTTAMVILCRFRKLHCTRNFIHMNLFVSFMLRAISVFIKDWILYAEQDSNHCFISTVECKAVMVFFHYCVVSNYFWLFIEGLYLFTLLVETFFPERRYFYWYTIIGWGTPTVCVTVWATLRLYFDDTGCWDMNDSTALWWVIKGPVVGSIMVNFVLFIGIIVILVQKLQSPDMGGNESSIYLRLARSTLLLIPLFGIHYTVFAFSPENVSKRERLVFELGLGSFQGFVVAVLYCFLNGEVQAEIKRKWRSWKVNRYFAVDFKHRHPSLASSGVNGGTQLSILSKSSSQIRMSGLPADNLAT
Put plainly: Filter binding assay, membranes of cells transiently transfected with human PAC1, 125I-labeled PACAP-27 tracer (Table 2). Also on record: expressed in transfected cells. The procedure:
as §1, §2, §3, §4, §5, §6, §7, §8, §9, §10

The mark [5] stands for this setting: cAMP generation, single result from two analyses performed in a single run, read-out: Human VPAC2 Receptor: Alpha Screen EC50.
The mark [6] stands for this setting: read-out: Human VPAC2 Receptor Binding.
[7] abbreviates: read-out: Human VPAC1 Receptor Binding.
[8] abbreviates: read-out: Human PAC1 Receptor Binding.

For orientation: EC50 means the concentration giving half of the maximal effect. In turn, “MHSDAVFTDNYTRLLAKLALQKYLQSIKNKRYGGPSSGAPPPS [Agonist P140]” showed an EC50 in assay [1] of 0.07 nM. Also, the IC50 in assay [2] was 1.94 nM; in assay [3] it was 1140 nM; in assay [4] it was 485 nM.
For “Hexanoyl-HSDAVFTDNYTRLRKQVAAKKYLQ[Aib]IKNKRYGGPSSGAPPPS [Agonist P187]”, the EC50 in assay [1] (setting [5]) is 0.4 nM. Besides, the IC50 in assay [2] (setting [6]) amounted to 0.17 nM; in assay [3] (setting [7]) it was 134 nM; in assay [4] (setting [8]) it was 296 nM.
With “Hexanoyl-HSDAVFTDNYTRLRKQVAAKKWLQSIKNKRYGGPSSGAPPPS [Agonist P129]”, the EC50 in assay [1] (setting [5]) is 0.49 nM. Besides, the results for the IC50 in assay [2] (setting [6]), in assay [3] (setting [7]) and in assay [4] (setting [8]) were 0.38 nM, 462 nM and 678 nM, respectively.
With “Hexanoyl-HSDAVFTDNYTRLKAQVAAKKYLQSIKNKRYGGPSSGAPPPS [Agonist P141]”, the EC50 in assay [1] (setting [5]) was determined as 0.72 nM. Moreover, the values for the IC50 in assay [2] (setting [6]), in assay [3] (setting [7]) and in assay [4] (setting [8]) were 0.64 nM, 25.9 nM and 658 nM, respectively.
Taken in the same sequence, the figures for “Hexanoyl-HSDAVFTDNYTRLRKQVAAKKYLQSTKNKRYGGPSSGAPPPS [Agonist P108]” were 0.27 nM, 0.45 nM, 332 nM and 486 nM.
Take “Hexanoyl-HSDAVFTDNYTRLRKQVAAKKYLQSYKNKRYGGPSSGAPPPS [Agonist P111]”: the EC50 in assay [1] (setting [5]) is 0.34 nM. Moreover, the IC50 in assay [2] (setting [6]) was 0.19 nM; in assay [3] (setting [7]) it was 300 nM; in assay [4] (setting [8]) it was 258 nM.
Consider `CCCCCC(=O)N[C@@H](Cc1c[nH]cn1)C(=O)N[C@@H](CO)C(=O)N[C@@H](CC(=O)O)C(=O)N[C@@H](C)C(=O)N[C@H](C(=O)N[C@@H](Cc1ccccc1)C(=O)N[C@H](C(=O)N[C@@H](CC(=O)O)C(=O)N[C@@H](CC(N)=O)C(=O)N[C@@H](Cc1ccc(O)cc1)C(=O)N[C@H](C(=O)N[C@@H](CCCNC(=N)N)C(=O)N[C@@H](CC(C)C)C(=O)N[C@@H](CCCNC(=N)N)C(=O)N[C@@H](CCCCN)C(=O)N[C@@H](CCC(N)=O)C(=O)N[C@H](C(=O)N[C@@H](C)C(=O)N[C@@H](C)C(=O)N[C@@H](CCCCN)C(=O)N[C@@H](CCCCN)C(=O)N[C@@H](Cc1ccc(O)cc1)C(=O)N[C@@H](CC(C)C)C(=O)N[C@@H](CCC(N)=O)C(=O)N[C@@H](CO)C(=O)N[C@H](C(=O)N[C@@H](CCCCN)C(=O)N[C@@H](CC(N)=O)C(=O)NCC(=O)NCC(=O)N1CCC[C@H]1C(=O)N[C@@H](CO)C(=O)N[C@@H](CO)C(=O)NCC(=O)N[C@@H](C)C(=O)N1CCC[C@H]1C(=O)N1CCC[C@H]1C(=O)N1CCC[C@H]1C(=O)N[C@@H](CO)C(=O)O)[C@@H](C)CC)C(C)C)[C@@H](C)O)[C@@H](C)O)C(C)C` [Agonist P154] (Hexanoyl-HSDAVFTDNYTRLRKQVAAKKYLQSIKNGGPSSGAPPPS-OH; C-terminus assumed), for which the half-maximal effective concentration (EC50) in assay [1] (setting [5]) came to 0.18 nM. For the same compound, the values for the IC50 in assay [2] (setting [6]), in assay [3] (setting [7]) and in assay [4] (setting [8]) were 0.31 nM, 141 nM and 1960 nM, respectively.
For “Hexanoyl-H[Aib]DAVFTDNYTRLRKQVAAKKYLQSIKNKRYGGPSSGAPPPS [Agonist P166]”, the EC50 in assay [1] (setting [5]) was determined as 0.15 nM. Also, the IC50 in assay [2] (setting [6]) was 0.46 nM; in assay [3] (setting [7]), 248 nM; in assay [4] (setting [8]), 127 nM.
`CCCCCC(=O)N[C@@H](Cc1c[nH]cn1)C(=O)N[C@@H](CO)C(=O)N[C@@H](CC(=O)O)C(=O)N[C@@H](C)C(=O)N[C@H](C(=O)N[C@@H](Cc1ccccc1)C(=O)N[C@H](C(=O)N[C@@H](CC(=O)O)C(=O)N[C@@H](CC(N)=O)C(=O)N[C@@H](Cc1ccc(O)cc1)C(=O)N[C@H](C(=O)N[C@@H](CCCNC(=N)N)C(=O)N[C@@H](CC(C)C)C(=O)N[C@@H](CCCNC(=N)N)C(=O)N[C@@H](CCCCN)C(=O)N[C@@H](CCC(N)=O)C(=O)N[C@H](C(=O)N[C@@H](C)C(=O)N[C@@H](C)C(=O)N[C@@H](CCC(N)=O)C(=O)N[C@@H](CCCCN)C(=O)N[C@@H](Cc1ccc(O)cc1)C(=O)N[C@@H](CC(C)C)C(=O)N[C@@H](CC(N)=O)C(=O)N[C@@H](CCC(N)=O)C(=O)N[C@@H](CC(C)C)C(=O)N[C@@H](CCCCN)C(=O)N[C@@H](CCCCN)C(=O)NCC(=O)NCC(=O)N1CCC[C@H]1C(=O)N[C@@H](CO)C(=O)N[C@@H](CO)C(=O)NCC(=O)N[C@@H](C)C(=O)N1CCC[C@H]1C(=O)N1CCC[C@H]1C(=O)N1CCC[C@H]1C(=O)N[C@@H](CO)C(=O)O)C(C)C)[C@@H](C)O)[C@@H](C)O)C(C)C` [Agonist P144] (Hexanoyl-HSDAVFTDNYTRLRKQVAAQKYLNQLKKGGPSSGAPPPS-OH; C-terminus assumed): in assay [1] (setting [5]), the EC50 came out at 0.32 nM. Besides, the IC50 in assay [2] (setting [6]) turned out to be 0.57 nM; in assay [3] (setting [7]), 4.43 nM; in assay [4] (setting [8]) it was 1180 nM.
In the case of “Hexanoyl-HSDAVFTDNYTRLRKQVAAKKYLQWIKNKRYGGPSSGAPPPS [Agonist P117]”, the EC50 in assay [1] (setting [5]) was 0.2 nM. The values for the IC50 in assay [2] (setting [6]), in assay [3] (setting [7]) and in assay [4] (setting [8]) were 0.51 nM, 442 nM and 243 nM, respectively.
In the case of “Hexanoyl-HSDAVFTDNYTRLRKQVAAKKFLQSIKNKRYGGPSSGAPPPS [Agonist P130]”, in assay [1] (setting [5]), the EC50 is 0.77 nM. Moreover, the IC50 in assay [2] (setting [6]) worked out at 0.43 nM; in assay [3] (setting [7]), 233 nM; in assay [4] (setting [8]), 444 nM.
As to “Hexanoyl-HSDAVFTDNYTRLRKQVAAKKYLQVIKNKRYGGPSSGAPPPS [Agonist P116]”, the EC50 in assay [1] (setting [5]) came to 0.12 nM. Moreover, the IC50 in assay [2] (setting [6]) came out at 0.74 nM; in assay [3] (setting [7]), 369 nM; in assay [4] (setting [8]) it was 145 nM.
Taken in the same sequence, the figures for “Hexanoyl-HSDAVFTDNYTRLLAQLALQKYLQSIKNKRYGGPSSGAPPPS [Agonist P195]” were 0.25 nM, 2.34 nM, > 3000 nM and 139 nM.
